Experimental findings from paper PMC9856672, “SGC-CAMKK2-1: A Chemical Probe for CAMKK2” (Cells, 2023) are described below.

Structures are written as SMILES.

One assay has as its target T1, LCK (Homo sapiens, UniProt P06239).
T1 construct: purchased Eurofins DiscoverX KINOMEscan
Kind of assay: KINOMEscan 1 μM, LCK. To be noted: 1000 nM; Entrez LCK; read-out: Percent Control. It is filed as binding. The text has this:
(§1) Supplement cells-12-00287-s001.zip/File S2. KinomeScan data for the CAMKK2 probe and negative control.xlsx, sheet "SGC-CAMKK2-1" | column: Percent Control

For assay [1], the target named is T2, MYLK2 (Homo sapiens, UniProt Q9H1R3).
T2 construct: purchased Eurofins DiscoverX KINOMEscan
Kind of assay: KINOMEscan 1 μM, MYLK2. The settings on record: 1000 nM; Entrez MYLK2; read-out: Percent Control. It is filed as binding.
From the text: as §1

In another assay the target is T3, JNK2 (Homo sapiens, UniProt P45984).
T3 construct: purchased Eurofins DiscoverX KINOMEscan
Kind of assay: KINOMEscan 1 μM, JNK2. Type of assay: binding. The settings on record: 1000 nM; Entrez MAPK9; read-out: Percent Control.
From the text: as §1

The next assay concerns FLT3(ITD). In words: KINOMEscan 1 μM, FLT3(ITD). To be noted: 1000 nM; Entrez FLT3. Type of assay: binding, human.
From the text: as §1

The target in a further assay is T4, BRAF(V600E) (Homo sapiens, UniProt P15056, V600E).
T4 construct: purchased Eurofins DiscoverX KINOMEscan
Kind of assay: KINOMEscan 1 μM, BRAF(V600E). It is filed as binding. To be noted: 1000 nM; Entrez BRAF; read-out: Percent Control.
From the text: as §1

A further assay concerns the target T5, MARK1 (Homo sapiens, UniProt Q9P0L2).
T5 construct: purchased Eurofins DiscoverX KINOMEscan
In words: KINOMEscan 1 μM, MARK1. It is filed as binding. To be noted: 1000 nM; Entrez MARK1; read-out: Percent Control.
From the text: as §1

Another assay deals with T6, FGFR4 (Homo sapiens, UniProt P22455).
T6 construct: purchased Eurofins DiscoverX KINOMEscan
In words: KINOMEscan 1 μM, FGFR4. It is filed as binding. The settings on record: 1000 nM; Entrez FGFR4; read-out: Percent Control.
From the text: as §1

The next assay deals with T7, PHKG2 (Homo sapiens, UniProt P15735).
T7 construct: purchased Eurofins DiscoverX KINOMEscan
In words: DiscoverX KINOMEscan binding assay at 1 μM, PHKG2. To be noted: Compound Concentration 1000 nM, read-out: Percent Control.
From the text: as §1

The target in the next assay is T8, CSNK1A1L (Homo sapiens, UniProt Q8N752).
T8 construct: purchased Eurofins DiscoverX KINOMEscan
Kind of assay: KINOMEscan 1 μM, CSNK1A1L. It is filed as binding. The settings on record: 1000 nM; Entrez CSNK1A1L; read-out: Percent Control.
From the text: as §1

The target in the next assay is T9, PIK3CG (Homo sapiens, UniProt P48736).
T9 construct: purchased Eurofins DiscoverX KINOMEscan
In words: KINOMEscan 1 μM, PIK3CG. Type of assay: binding. The settings on record: 1000 nM; Entrez PIK3CG; read-out: Percent Control.
From the text: as §1

Assay [2] has as its target T10, JAK2(JH1domain-catalytic) (Homo sapiens, UniProt O60674).
T10 construct: JAK2(JH1domain-catalytic); purchased Eurofins DiscoverX KINOMEscan
In words: KINOMEscan 1 μM, JAK2(JH1domain-catalytic). It is filed as binding. The settings on record: 1000 nM; Entrez JAK2; read-out: Percent Control.
From the text: as §1

For a further assay, the target named is T11, AKT1 (Homo sapiens, UniProt P31749).
T11 construct: purchased Eurofins DiscoverX KINOMEscan
Kind of assay: KINOMEscan 1 μM, AKT1. Type of assay: binding. The settings on record: 1000 nM; Entrez AKT1; read-out: Percent Control.
From the text: as §1

Another assay addresses T12, HCK (Homo sapiens, UniProt P08631).
T12 construct: purchased Eurofins DiscoverX KINOMEscan
In words: KINOMEscan 1 μM, HCK. To be noted: 1000 nM; Entrez HCK; read-out: Percent Control. Type of assay: binding.
From the text: as §1

For another assay, the target named is T13, PRKD1 (Homo sapiens, UniProt Q15139).
T13 construct: purchased Eurofins DiscoverX KINOMEscan
In words: DiscoverX KINOMEscan binding assay at 1 μM, PRKD1. The settings on record: Compound Concentration 1000 nM, read-out: Percent Control.
From the text: as §1

The target in a further assay is T14, HIPK2 (Homo sapiens, UniProt Q9H2X6).
T14 construct: purchased Eurofins DiscoverX KINOMEscan
In words: KINOMEscan 1 μM, HIPK2. Type of assay: binding. To be noted: 1000 nM; Entrez HIPK2; read-out: Percent Control.
From the text: as §1

A further assay has as its target T15, CAMK4 (Homo sapiens, UniProt Q16566).
T15 construct: purchased Eurofins DiscoverX KINOMEscan
In words: KINOMEscan at 1 μM, CAMK4. The settings on record: 1000 nM, read-out: Percent Control. It is filed as binding. The text has this: (§2) Supplement cells-12-00287-s001.zip/File S2. KinomeScan data for the CAMKK2 probe and negative control.xlsx, sheet "SGC-CAMKK2-1N" | column: Percent Control

The target in assay [3] is T2, MYLK2. Kind of assay: KINOMEscan at 1 μM, MYLK2. To be noted: 1000 nM, read-out: Percent Control. Type of assay: binding.
From the text: as §2

In another assay the target is T16, CASK (Homo sapiens, UniProt O14936).
T16 construct: purchased Eurofins DiscoverX KINOMEscan
Kind of assay: KINOMEscan at 1 μM, CASK. Type of assay: binding. To be noted: 1000 nM, read-out: Percent Control.
From the text: as §2

The next assay deals with T17, IKK-epsilon (Homo sapiens, UniProt Q14164).
T17 construct: purchased Eurofins DiscoverX KINOMEscan
Kind of assay: KINOMEscan at 1 μM, IKK-epsilon. It is filed as binding. The settings on record: 1000 nM, read-out: Percent Control.
From the text: as §2

For another assay, the target named is T18, MET(Y1235D) (Homo sapiens, UniProt P08581, Y1235D).
T18 construct: purchased Eurofins DiscoverX KINOMEscan
Kind of assay: KINOMEscan at 1 μM, MET(Y1235D). Type of assay: binding. To be noted: 1000 nM, read-out: Percent Control.
From the text: as §2

For a further assay, the target named is T19, CLK3 (Homo sapiens, UniProt P49761).
T19 construct: purchased Eurofins DiscoverX KINOMEscan
In words: KINOMEscan at 1 μM, CLK3. The settings on record: 1000 nM, read-out: Percent Control. Type of assay: binding.
From the text: as §2

The target in the next assay is T20, SNARK (Homo sapiens, UniProt Q9H093).
T20 construct: purchased Eurofins DiscoverX KINOMEscan
In words: KINOMEscan at 1 μM, SNARK. Type of assay: binding. The settings on record: 1000 nM, read-out: Percent Control.
From the text: as §2

For a further assay, the target named is T21, PDPK1 (Homo sapiens, UniProt O15530).
T21 construct: purchased Eurofins DiscoverX KINOMEscan
Kind of assay: KINOMEscan binding assay at 1 μM, PDPK1. The settings on record: Compound Concentration 1000 nM; read-out: Percent Control.
From the text: as §2

Another assay concerns the target T22, ADCK3 (Homo sapiens, UniProt Q8NI60).
T22 construct: purchased Eurofins DiscoverX KINOMEscan
In words: KINOMEscan at 1 μM, ADCK3. Type of assay: binding. The settings on record: 1000 nM, read-out: Percent Control.
From the text: as §2

Another assay addresses T23, CDK3 (Homo sapiens, UniProt Q00526).
T23 construct: purchased Eurofins DiscoverX KINOMEscan
In words: KINOMEscan at 1 μM, CDK3. Type of assay: binding. The settings on record: 1000 nM, read-out: Percent Control.
From the text: as §2

For assay [4], the target named is T24, ABL1(F317L)-nonphosphorylated (Homo sapiens, UniProt P00519, F317L).
T24 construct: purchased Eurofins DiscoverX KINOMEscan
In words: KINOMEscan at 1 μM, ABL1(F317L)-nonphosphorylated. Type of assay: binding. The settings on record: 1000 nM, read-out: Percent Control.
From the text: as §2

Another assay addresses T25, MLK1 (Homo sapiens, UniProt P80192).
T25 construct: purchased Eurofins DiscoverX KINOMEscan
In words: KINOMEscan at 1 μM, MLK1. It is filed as binding. To be noted: 1000 nM, read-out: Percent Control.
From the text: as §2

In the next assay the target is T26, YES (Homo sapiens, UniProt P07947).
T26 construct: purchased Eurofins DiscoverX KINOMEscan
Kind of assay: KINOMEscan at 1 μM, YES. Type of assay: binding. To be noted: 1000 nM, read-out: Percent Control.
From the text: as §2

The next assay has as its target T27, ACVR2A (Homo sapiens, UniProt P27037).
T27 construct: purchased Eurofins DiscoverX KINOMEscan
In words: KINOMEscan at 1 μM, ACVR2A. Type of assay: binding. The settings on record: 1000 nM, read-out: Percent Control.
From the text: as §2

The target in another assay is T28, ALK(L1196M) (Homo sapiens, UniProt Q9UM73, L1196M).
T28 construct: purchased Eurofins DiscoverX KINOMEscan
In words: KINOMEscan at 1 μM, ALK(L1196M). It is filed as binding. The settings on record: 1000 nM, read-out: Percent Control.
From the text: as §2

The target in a further assay is T29, PFTK1 (Homo sapiens, UniProt O94921).
T29 construct: purchased Eurofins DiscoverX KINOMEscan
In words: KINOMEscan binding assay at 1 μM, PFTK1. To be noted: Compound Concentration 1000 nM; read-out: Percent Control.
From the text: as §2

The target in a further assay is T30, DDR2 (Homo sapiens, UniProt Q16832).
T30 construct: purchased Eurofins DiscoverX KINOMEscan
In words: KINOMEscan at 1 μM, DDR2. It is filed as binding. To be noted: 1000 nM, read-out: Percent Control.
From the text: as §2

In the next assay the target is T31, CLK4 (Homo sapiens, UniProt Q9HAZ1).
T31 construct: purchased Eurofins DiscoverX KINOMEscan
In words: KINOMEscan at 1 μM, CLK4. It is filed as binding. To be noted: 1000 nM, read-out: Percent Control.
From the text: as §2

For assay [5], the target named is T10, JAK2(JH1domain-catalytic). Kind of assay: KINOMEscan at 1 μM, JAK2(JH1domain-catalytic). To be noted: 1000 nM, read-out: Percent Control. It is filed as binding.
From the text: as §2

A further assay concerns the target T32, PRKCE (Homo sapiens, UniProt Q02156).
T32 construct: purchased Eurofins DiscoverX KINOMEscan
Kind of assay: KINOMEscan binding assay at 1 μM, PRKCE. The settings on record: Compound Concentration 1000 nM; read-out: Percent Control.
From the text: as §2

T10 sequence (O60674 840-1132 limits assumed): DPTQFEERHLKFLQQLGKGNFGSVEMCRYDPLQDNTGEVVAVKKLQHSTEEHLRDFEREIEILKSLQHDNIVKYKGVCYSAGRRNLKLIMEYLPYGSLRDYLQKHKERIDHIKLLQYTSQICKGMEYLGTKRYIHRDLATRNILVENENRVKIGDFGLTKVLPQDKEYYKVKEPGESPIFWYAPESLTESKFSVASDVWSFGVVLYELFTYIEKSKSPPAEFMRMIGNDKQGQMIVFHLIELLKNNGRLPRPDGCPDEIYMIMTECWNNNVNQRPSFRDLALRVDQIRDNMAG
T2 sequence (Q9H1R3 whole entry): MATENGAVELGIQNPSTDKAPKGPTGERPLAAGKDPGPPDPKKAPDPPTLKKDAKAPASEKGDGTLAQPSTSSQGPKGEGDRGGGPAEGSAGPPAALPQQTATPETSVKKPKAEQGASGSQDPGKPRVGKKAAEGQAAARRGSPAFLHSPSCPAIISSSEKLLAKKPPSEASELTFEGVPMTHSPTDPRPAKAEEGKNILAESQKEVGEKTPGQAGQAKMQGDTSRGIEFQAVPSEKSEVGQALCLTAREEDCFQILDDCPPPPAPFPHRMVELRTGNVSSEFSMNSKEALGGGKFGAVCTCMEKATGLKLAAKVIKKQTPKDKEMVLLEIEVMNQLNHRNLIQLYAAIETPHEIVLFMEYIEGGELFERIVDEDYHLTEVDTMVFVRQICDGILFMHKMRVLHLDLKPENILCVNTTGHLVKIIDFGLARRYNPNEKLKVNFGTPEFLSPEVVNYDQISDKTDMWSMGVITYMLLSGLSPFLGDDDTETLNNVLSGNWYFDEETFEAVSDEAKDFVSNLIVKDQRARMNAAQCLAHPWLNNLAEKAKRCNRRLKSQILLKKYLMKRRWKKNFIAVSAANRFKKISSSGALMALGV
T23 sequence (Q00526 whole entry): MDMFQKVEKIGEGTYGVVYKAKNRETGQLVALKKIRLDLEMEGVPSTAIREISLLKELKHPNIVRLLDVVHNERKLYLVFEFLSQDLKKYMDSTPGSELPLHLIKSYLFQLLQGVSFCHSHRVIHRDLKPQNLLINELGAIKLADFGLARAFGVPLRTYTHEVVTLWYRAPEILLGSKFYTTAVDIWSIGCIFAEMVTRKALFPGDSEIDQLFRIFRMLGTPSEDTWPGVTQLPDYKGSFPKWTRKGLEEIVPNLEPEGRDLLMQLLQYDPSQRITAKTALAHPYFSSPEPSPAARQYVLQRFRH
T12 sequence (P08631 whole entry): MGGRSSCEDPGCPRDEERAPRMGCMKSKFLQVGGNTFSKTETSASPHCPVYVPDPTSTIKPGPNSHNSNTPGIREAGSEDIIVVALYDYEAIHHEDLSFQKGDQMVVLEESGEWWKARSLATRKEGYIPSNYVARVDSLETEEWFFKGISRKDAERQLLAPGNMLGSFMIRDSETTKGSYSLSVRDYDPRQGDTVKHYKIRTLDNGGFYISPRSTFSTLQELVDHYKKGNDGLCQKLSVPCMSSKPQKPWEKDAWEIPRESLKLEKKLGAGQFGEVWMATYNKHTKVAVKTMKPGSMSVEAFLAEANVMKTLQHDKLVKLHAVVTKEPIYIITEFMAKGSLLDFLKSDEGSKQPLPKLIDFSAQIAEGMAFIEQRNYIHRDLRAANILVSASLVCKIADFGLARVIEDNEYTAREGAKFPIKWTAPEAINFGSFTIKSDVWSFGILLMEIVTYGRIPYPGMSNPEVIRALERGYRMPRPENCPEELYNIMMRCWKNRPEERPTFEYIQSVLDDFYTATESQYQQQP
T1 sequence (P06239 whole entry): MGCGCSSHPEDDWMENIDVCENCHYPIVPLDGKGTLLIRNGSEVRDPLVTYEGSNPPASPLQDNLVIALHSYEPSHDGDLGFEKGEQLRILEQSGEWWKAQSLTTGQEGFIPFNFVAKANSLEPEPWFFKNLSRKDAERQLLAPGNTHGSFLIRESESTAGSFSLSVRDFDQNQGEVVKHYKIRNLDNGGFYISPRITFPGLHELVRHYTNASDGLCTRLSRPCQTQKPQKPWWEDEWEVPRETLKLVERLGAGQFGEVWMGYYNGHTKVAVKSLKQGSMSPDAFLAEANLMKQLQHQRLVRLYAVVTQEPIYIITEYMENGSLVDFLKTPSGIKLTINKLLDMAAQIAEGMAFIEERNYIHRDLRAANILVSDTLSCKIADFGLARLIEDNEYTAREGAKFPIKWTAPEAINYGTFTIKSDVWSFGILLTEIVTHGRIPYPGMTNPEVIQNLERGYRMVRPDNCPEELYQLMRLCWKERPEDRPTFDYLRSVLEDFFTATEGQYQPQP
T9 sequence (P48736 whole entry): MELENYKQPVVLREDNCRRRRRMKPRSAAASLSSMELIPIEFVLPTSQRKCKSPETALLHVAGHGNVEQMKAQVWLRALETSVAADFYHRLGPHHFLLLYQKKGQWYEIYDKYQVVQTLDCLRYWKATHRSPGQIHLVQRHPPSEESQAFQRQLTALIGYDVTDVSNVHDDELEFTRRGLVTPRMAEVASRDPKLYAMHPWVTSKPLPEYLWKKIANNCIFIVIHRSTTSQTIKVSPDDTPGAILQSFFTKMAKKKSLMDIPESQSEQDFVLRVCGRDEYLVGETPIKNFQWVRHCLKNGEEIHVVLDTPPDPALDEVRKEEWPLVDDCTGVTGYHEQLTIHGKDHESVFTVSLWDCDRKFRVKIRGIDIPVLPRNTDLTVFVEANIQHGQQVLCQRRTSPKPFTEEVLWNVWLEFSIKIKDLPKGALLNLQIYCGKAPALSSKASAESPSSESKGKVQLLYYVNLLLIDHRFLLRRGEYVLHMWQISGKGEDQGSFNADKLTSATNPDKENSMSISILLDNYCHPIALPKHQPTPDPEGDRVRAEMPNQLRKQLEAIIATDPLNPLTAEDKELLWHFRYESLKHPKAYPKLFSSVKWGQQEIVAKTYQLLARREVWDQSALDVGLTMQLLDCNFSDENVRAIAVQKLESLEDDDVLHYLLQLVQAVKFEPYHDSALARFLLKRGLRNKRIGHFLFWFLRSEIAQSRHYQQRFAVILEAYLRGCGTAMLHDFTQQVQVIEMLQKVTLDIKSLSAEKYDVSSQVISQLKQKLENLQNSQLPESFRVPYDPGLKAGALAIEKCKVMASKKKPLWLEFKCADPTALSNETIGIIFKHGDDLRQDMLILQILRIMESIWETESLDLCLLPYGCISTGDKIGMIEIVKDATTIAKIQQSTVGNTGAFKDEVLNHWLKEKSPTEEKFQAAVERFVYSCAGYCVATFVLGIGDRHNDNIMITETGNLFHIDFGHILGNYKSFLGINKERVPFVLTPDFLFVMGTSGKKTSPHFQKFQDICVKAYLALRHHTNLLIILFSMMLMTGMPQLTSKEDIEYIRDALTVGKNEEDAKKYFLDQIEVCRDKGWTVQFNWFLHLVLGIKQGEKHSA
T26 sequence (P07947 whole entry): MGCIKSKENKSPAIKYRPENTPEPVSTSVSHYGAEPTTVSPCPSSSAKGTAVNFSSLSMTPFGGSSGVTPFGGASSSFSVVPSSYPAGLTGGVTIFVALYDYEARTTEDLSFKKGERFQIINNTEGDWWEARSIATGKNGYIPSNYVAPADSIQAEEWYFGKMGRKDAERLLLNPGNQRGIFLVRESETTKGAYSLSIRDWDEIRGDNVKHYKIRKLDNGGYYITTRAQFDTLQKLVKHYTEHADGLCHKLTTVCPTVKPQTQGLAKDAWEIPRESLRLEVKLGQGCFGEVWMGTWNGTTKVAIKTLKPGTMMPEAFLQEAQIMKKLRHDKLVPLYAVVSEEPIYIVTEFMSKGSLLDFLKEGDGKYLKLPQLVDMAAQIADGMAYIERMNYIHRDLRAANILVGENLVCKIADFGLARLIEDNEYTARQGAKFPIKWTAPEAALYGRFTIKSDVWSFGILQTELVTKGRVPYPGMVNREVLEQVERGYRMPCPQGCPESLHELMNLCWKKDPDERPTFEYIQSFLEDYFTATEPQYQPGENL
T32 sequence (Q02156 whole entry): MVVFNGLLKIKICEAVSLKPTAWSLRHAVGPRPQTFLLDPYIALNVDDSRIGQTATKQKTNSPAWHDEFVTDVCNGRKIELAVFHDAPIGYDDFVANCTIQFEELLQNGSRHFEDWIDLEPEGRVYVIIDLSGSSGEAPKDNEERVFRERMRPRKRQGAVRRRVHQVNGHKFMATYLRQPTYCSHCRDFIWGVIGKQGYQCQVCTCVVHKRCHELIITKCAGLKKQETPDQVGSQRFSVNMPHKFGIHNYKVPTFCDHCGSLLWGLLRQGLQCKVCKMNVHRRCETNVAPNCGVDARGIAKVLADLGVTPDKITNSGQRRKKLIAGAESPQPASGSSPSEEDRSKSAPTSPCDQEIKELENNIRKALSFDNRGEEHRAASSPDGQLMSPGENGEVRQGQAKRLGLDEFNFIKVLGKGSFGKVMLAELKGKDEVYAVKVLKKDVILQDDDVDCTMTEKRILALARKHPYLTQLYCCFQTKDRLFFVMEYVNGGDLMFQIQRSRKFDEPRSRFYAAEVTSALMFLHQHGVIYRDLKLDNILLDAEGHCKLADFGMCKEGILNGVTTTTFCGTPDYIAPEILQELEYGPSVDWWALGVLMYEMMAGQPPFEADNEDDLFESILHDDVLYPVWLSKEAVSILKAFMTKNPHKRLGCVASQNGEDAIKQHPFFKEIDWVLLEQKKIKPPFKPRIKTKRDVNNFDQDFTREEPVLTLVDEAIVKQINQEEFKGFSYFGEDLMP
T8 sequence (Q8N752 whole entry): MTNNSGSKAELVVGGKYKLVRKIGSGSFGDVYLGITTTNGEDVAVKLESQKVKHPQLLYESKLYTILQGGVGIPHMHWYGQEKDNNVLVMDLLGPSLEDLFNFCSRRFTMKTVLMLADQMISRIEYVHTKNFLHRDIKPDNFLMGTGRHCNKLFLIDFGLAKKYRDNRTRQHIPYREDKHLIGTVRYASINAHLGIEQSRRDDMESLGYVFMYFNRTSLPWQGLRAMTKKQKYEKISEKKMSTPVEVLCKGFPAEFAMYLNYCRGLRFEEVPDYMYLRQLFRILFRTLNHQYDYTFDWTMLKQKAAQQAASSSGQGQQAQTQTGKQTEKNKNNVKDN

Consider `Cc1cccc(-c2cnc3occ(-c4ccc(C(=O)O)c(C5CCCC5)c4)c3c2)c1` [SGC-CAMKK2-1 (YL-36)], for which the remaining binding at 1 µM at LCK stood at 86%; on MYLK2 [1] it was 100%; on JNK2 it was 100%; on BRAF(V600E) it was 100%; on MARK1 it was 100%; on FGFR4 it was 98%. Moreover, the remaining binding at 1 µM stood at 100% on PHKG2; 88% on CSNK1A1L; 76% at PIK3CG; 100% in [2]; 100% on AKT1; 100% at HCK. Further, the remaining binding at 1 µM on PRKD1 and on HIPK2 was 100% each time. Moreover, the “Percent Control” value in the assay with FLT3(ITD) is given as 100%.
For the compound `O=C(O)c1ccc(-c2coc3ncc(-c4ccccc4)cc23)cc1Cl` [SGC-CAMKK2-1N (UNC-YL-83)], the remaining binding at 1 µM on CAMK4 was 100%; on MYLK2 [3] it was 82%; on CASK it was 81%; on IKK-epsilon, 98%; on MET(Y1235D) it was 91%; at CLK3 it was 85%. In addition, the remaining binding at 1 µM at SNARK was determined as 90%; at PDPK1, 100%; on ADCK3 it was 68%; at CDK3, 100%; in [4], 100%; at MLK1, 82%. Moreover, the remaining binding at 1 µM on YES came out at 87%; at ACVR2A it was 72%; on ALK(L1196M) it was 92%; at PFTK1, 100%; at DDR2 it was 100%; on CLK4, 93%. Also, the remaining binding at 1 µM in assay [5] amounted to 80%; at PRKCE, 100%.
